A short description of the data set: Solubility, hygroscopicity and moisture sensitivity of AKST-4290 API. Type of data set: physicochemical. The text has this: Applicant has been able to prevent degradation utilizing the wax coating process described herein. This technique reduced the coating time and limited water uptake of core tablets improving impurity profile at T-0.
Specifically, the wax was applied as a sub-coat to the core tablets. In the case of AKST-4290, one of the purposes of this wax coat was to protect the API in the tablets from moisture. […] Although the relative humidity can be controlled during the upstream process of creating the tablet, this cannot be achieved in a coating process with aqueous solutions.

Take `Cc1cc(C(=O)N(C)C)cc(NC(=O)[C@H]2CCC(=O)N2C2CCN(Cc3ccc(Cl)c(C)c3)CC2)n1` [AKST-4290]: under “in words”, the “Hygroscopicity of API” value is “highly hygroscopic” and the “Solubility of API” value is listed as “highly soluble”. Moreover, for the setting “relative humidity over 40%, even for a couple of minutes”, the “Stability on exposure to humidity” value is “undergoes both physical and chemical changes”.

(Values after patent publication US20240285539A1, “PROTECTIVE COATING FOR MOISTURE SENSITIVE PHARMACEUTICAL COMPOSITIONS” (R.P. Scherer Technologies, LLC, priority 2021, published 2024).)
